Several values for one entry are separate records, joined by “and”; a condition that tells them apart may be missing. Equal values may be shown once. Read-outs that look alike come from different tables or passages of the source.
Experiments:
[1] = tested on: live Wuhan (Influenza A/Wuhan/359/95, H3N2); experiment: ELISA for anti-Wuhan antibodies (mouse sera 1:100); assay type: in vivo, mice; settings: for Absorbance values for individual sera tested on influenzavirus strain Wuhan, Pre: pre-bleed; for Anti-Wuhan Absorbance Day 42 (group average) / Anti-Wuhan Absorbance Pre-Bleed (group average): averaged results
[2] = tested on: peptide corresponding to the peptide-BSA conjugate used for injection; experiment: ELISA for anti-peptide antibodies (individual mouse sera 1:100); assay type: in vivo, mice; settings: for Average Absorbance Values of sera for tested peptides, Day 14 / Average Absorbance Values of sera for tested peptides, Day 29 / Average Absorbance Values of sera for tested peptides, Day 42 / Average Absorbance Values of sera for tested peptides, Pre: group average; for Average Absorbance Values of sera for tested peptides, Day 14 / Average Absorbance Values of sera for tested peptides, Day 29 / Average Absorbance Values of sera for tested peptides, Day 42 / Average Absorbance Values of sera for tested peptides, Pre / Individual absorbancy values of sera for tested peptides, Day 14 / Individual absorbancy values of sera for tested peptides, Day 29 / Individual absorbancy values of sera for tested peptides, Day 42: mice; for Average Absorbance Values of sera for tested peptides, Pre / Individual absorbancy values of sera for tested peptides, Pre: pre-bleed; for Individual absorbancy values of sera for tested peptides, Pre: mice injected with peptide-BSA conjugate, absorbance 450 nm; for Individual absorbancy values of sera for tested peptides, Pre / Individual absorbancy values of sera for tested peptides, Day 14 / Individual absorbancy values of sera for tested peptides, Day 29 / Individual absorbancy values of sera for tested peptides, Day 42: sera 1:100
Experimental: Individual sera were tested at a final dilution of 1:100 (in PBS-T) on Nunc Maxisorp® plates coated with the peptide corresponding to the peptide-BSA conjugate used for injection, at a concentration of 1 μg/ml in PBS (100 μl/well). One hundred microliters of diluted sera were reacted on the coated plate for 30 to 60 min at room temperature, and unbound material was removed by washing three times with PBS-T. Anti-peptide antibodies were detected with peroxidase-labeled goat anti-mouse IgG (γ-specific), diluted 1:10000 in PBS-T (100 μl/well; Jackson ImmunoResearch Laboratories, Inc., West Grove, Pa., USA). Following 30-min incubation, the wells were washed five times with PBS-T to removed unbound material and 100 μl of substrate (TMB; Kirkegaard & Perry Laboratories, Inc., Gaithersburg, Md., USA) was added to each well. The reaction was allowed to proceed for 15 min in the dark and stopped by addition of 100 μl of TMB Stop Solution per well (Kirkegaard & Perry). Absorbance was determined at 450 nm.

[3] = tested on: IFN-γ induction in splenocytes; assay type: cell-based; settings: mice immunized with peptide-BSA conjugates, 72 h in vitro treatment
[4] = tested on: Influenza H1N1, H3N2, and H5N1; settings: in vivo
live H3N2 virus = assay type: in vivo, cotton rats (Sigmodon hispidus); settings: cotton rats; 100 μg IM on day 0 and day 28, in CFA or in PBS; sera day 0, 28, 42
[5] = mice, 5 μg per injection, sera 1:100
[6] = mice, 20 μg per injection, sera 1:100
[7] = sera 1:100, dose per inject 5 μg
[8] = sera 1:100, dose per inject 20 μg
[9] = sera 1:100, dose per injection 5 μg
[10] = sera 1:100, dose per injection 20 μg

For DWSGYSGSFVQHPELTGL [Peptide 5912], the “Absorbance values for individual sera tested on influenzavirus strain Wuhan, Pre” value [1, 5] was 0.063 and 0.060 and 0.062 and 0.083, the “Absorbance values for individual sera tested on influenzavirus strain Wuhan, Pre” value [1, 6] was 0.077 and 0.084 and 0.057 and 0.086 and the “Anti-Wuhan Absorbance Day 42 (individual mice)” value [1, 7] was 0.086 and 0.100 and 0.527 and 0.090. The “Anti-Wuhan Absorbance Pre-Bleed (individual mice)” value [1, 7] was 0.063 and 0.060 and 0.062 and 0.083, the “Anti-Wuhan Absorbance Day 42 (individual mice)” value [1, 8] was 0.132 and 0.431 and 0.093 and 0.068 and the “Anti-Wuhan Absorbance Pre-Bleed (individual mice)” value [1, 8] was 0.077 and 0.084 and 0.057 and 0.086. The “Anti-Wuhan Absorbance Day 42 (group average)” value [1, 9] was 0.201, the “Anti-Wuhan Absorbance Pre-Bleed (group average)” value [1, 9] was 0.067 and the “Anti-Wuhan Absorbance Day 42 (group average)” value [1, 10] was 0.181. For the same molecule, the “Anti-Wuhan Absorbance Pre-Bleed (group average)” value [1, 10] was 0.076, the “Average Absorbance Values of sera for tested peptides, Day 14” value (shortened to “Average Absorbance Values of sera … Day 14”) ([2]; 5 μg per injection) was 0.162 and the “Average Absorbance Values of sera for tested peptides, Day 29” value (from here on “Average Absorbance Values of sera … Day 29”) ([2]; 5 μg per injection) was 0.325. For the same molecule, the “Average Absorbance Values of sera for tested peptides, Day 42” value (“Average Absorbance Values of sera … Day 42” for short) ([2]; 5 μg per injection) was 0.693, the “Average Absorbance Values of sera for tested peptides, Pre” value (“Average Absorbance Values of sera … Pre” for short) ([2]; 5 μg per injection) was 0.130 and the “Average Absorbance Values of sera … Day 14” value ([2]; 20 μg per injection) was 0.130. The “Average Absorbance Values of sera … Day 29” value ([2]; 20 μg per injection) was 0.123, the “Average Absorbance Values of sera … Day 42” value ([2]; 20 μg per injection) was 0.155 and the “Average Absorbance Values of sera … Pre” value ([2]; 20 μg per injection) was 0.100. For the same molecule, the “Individual absorbancy values of sera for tested peptides, Pre” value (from here on “Individual absorbancy values of sera … Pre”) ([2]; 5 μg per injection) was 0.090 and 0.094 and 0.107 and 0.156, the “Individual absorbancy values of sera … Pre” value ([2]; 20 μg per injection) was 0.100 and 0.098 and 0.090 and 0.123 and the “Individual absorbancy values of sera for tested peptides, Day 14” value (“Individual absorbancy values … Day 14” for short) ([2]; 5 μg per injection) was 0.287 and 0.109 and 0.230 and 0.147. The “Individual absorbancy values of sera for tested peptides, Day 29” value (“Individual absorbancy values … Day 29” below) ([2]; 5 μg per injection) was 0.175 and 0.137 and 0.700 and 0.138, the “Individual absorbancy values of sera for tested peptides, Day 42” value (shortened to “Individual absorbancy values … Day 42”) ([2]; 5 μg per injection) was 0.154 (2×) and 0.167 and 1.758 and the “Individual absorbancy values … Day 14” value ([2]; 20 μg per injection) was 0.091 and 0.082 and 0.103 and 0.088. The “Individual absorbancy values … Day 29” value ([2]; 20 μg per injection) was 0.098 and 0.146 and 0.099 and 0.096 and the “Individual absorbancy values … Day 42” value ([2]; 20 μg per injection) was 0.155 and 0.189 and 0.168 and 0.111.

For GNLFIAP [Peptide 5910], the “Absorbance values for individual sera tested on influenzavirus strain Wuhan, Pre” value [1, 5] was 0.076 and 0.092 and 0.068 and 0.109, the “Absorbance values for individual sera tested on influenzavirus strain Wuhan, Pre” value [1, 6] was 0.069 and 0.070 and 0.071 and 0.092 and the “antibody responses that bound to native influenza (whole H3 virus), day 42 vs before” value ([1]; mice, conjugates at 5-μg and 20-μg doses) was “good antibody responses”. For the same molecule, the “Anti-Wuhan Absorbance Day 42 (individual mice)” value [1, 7] was 0.449 and 0.341 and 0.288 and 0.088, the “Anti-Wuhan Absorbance Pre-Bleed (individual mice)” value [1, 7] was 0.076 and 0.092 and 0.068 and 0.109 and the “Anti-Wuhan Absorbance Day 42 (individual mice)” value [1, 8] was 0.546 and 0.096 and 0.271 and 0.385. The “Anti-Wuhan Absorbance Pre-Bleed (individual mice)” value [1, 8] was 0.069 and 0.070 and 0.071 and 0.092, the “Anti-Wuhan Absorbance Day 42 (group average)” value [1, 9] was 0.291 and the “Anti-Wuhan Absorbance Pre-Bleed (group average)” value [1, 9] was 0.086. For the same molecule, the “Anti-Wuhan Absorbance Day 42 (group average)” value [1, 10] was 0.324, the “Anti-Wuhan Absorbance Pre-Bleed (group average)” value [1, 10] was 0.075 and the “Average Absorbance Values of sera … Day 14” value ([2]; 5 μg per injection) was 0.113. For the same molecule, the “Average Absorbance Values of sera … Day 29” value ([2]; 5 μg per injection) was 0.140, the “Average Absorbance Values of sera … Day 42” value ([2]; 5 μg per injection) was 0.318 and the “Average Absorbance Values of sera … Pre” value ([2]; 5 μg per injection) was 0.154. The “Average Absorbance Values of sera … Day 14” value ([2]; 20 μg per injection) was 0.102, the “Average Absorbance Values of sera … Day 29” value ([2]; 20 μg per injection) was 0.202 and the “Average Absorbance Values of sera … Day 42” value ([2]; 20 μg per injection) was 0.237. For the same molecule, the “Average Absorbance Values of sera … Pre” value ([2]; 20 μg per injection) was 0.083, the “Individual absorbancy values of sera … Pre” value ([2]; 5 μg per injection) was 0.100 and 0.110 and 0.097 and 0.308 and the “Individual absorbancy values of sera … Pre” value ([2]; 20 μg per injection) was 0.081 and 0.083 (2×) and 0.087. The “Individual absorbancy values … Day 14” value ([2]; 5 μg per injection) was 0.089 and 0.090 and 0.086 and 0.186, the “Individual absorbancy values … Day 29” value ([2]; 5 μg per injection) was 0.099 and 0.226 and 0.085 and 0.149 and the “Individual absorbancy values … Day 42” value ([2]; 5 μg per injection) was 0.123 and 0.306 and 0.680 and 0.162. For the same molecule, the “Individual absorbancy values … Day 14” value ([2]; 20 μg per injection) was 0.104 and 0.081 and 0.078 and 0.144, the “Individual absorbancy values … Day 29” value ([2]; 20 μg per injection) was 0.296 and 0.077 and 0.133 and 0.302 and the “Individual absorbancy values … Day 42” value ([2]; 20 μg per injection) was 0.279 and 0.164 and 0.175 and 0.333. For the same molecule, the “IFN-γ response of spleen cell supernatants (in words)” value [3] was “strongest IFN-γ response” and the “IFN-γ response of spleen cell supernatants (in words)” value ([3]; listed as GNLFIAP) was “good IFN-γ response”.

In the case of “HYEECSCYDWSGYSGSFVQHPELTGLHYEECSCYQYIKANSKFIGITE [Peptide 5908]”, the “immune response against Influenza H1N1, H3N2, and H5N1” value [4] is reported as “raised an immune response”.

With KSCINRCFYVELIRGR [Peptide 5914] the “Absorbance values for individual sera tested on influenzavirus strain Wuhan, Day 42” value ([1]; mice, 5 μg per injection, day 42, sera 1:100) was 0.172, the “Absorbance values for individual sera tested on influenzavirus strain Wuhan, Pre” value [1, 5] was 0.062 and 0.059 and 0.090 and 0.083 and the “Absorbance values for individual sera tested on influenzavirus strain Wuhan, Pre” value [1, 6] was 0.099 and 0.132 and 0.068 and 0.080. The “Anti-Wuhan Absorbance Day 42 (individual mice)” value [1, 7] was 0.176 and 0.329 and 0.239 and 0.096, the “Anti-Wuhan Absorbance Pre-Bleed (individual mice)” value [1, 7] was 0.062 and 0.059 and 0.090 and 0.083 and the “Anti-Wuhan Absorbance Day 42 (individual mice)” value [1, 8] was 0.156 and 0.408 and 0.296 and 0.182. For the same molecule, the “Anti-Wuhan Absorbance Pre-Bleed (individual mice)” value [1, 8] was 0.099 and 0.132 and 0.068 and 0.080, the “Anti-Wuhan Absorbance Day 42 (group average)” value [1, 9] was 0.210 and the “Anti-Wuhan Absorbance Pre-Bleed (group average)” value [1, 9] was 0.073. For the same molecule, the “Anti-Wuhan Absorbance Day 42 (group average)” value [1, 10] was 0.260, the “Anti-Wuhan Absorbance Pre-Bleed (group average)” value [1, 10] was 0.094 and the “Average Absorbance Values of sera … Day 14” value ([2]; 5 μg per injection) was 0.128. The “Average Absorbance Values of sera … Day 29” value ([2]; 5 μg per injection) was 0.181, the “Average Absorbance Values of sera … Day 42” value ([2]; 5 μg per injection) was 0.284 and the “Average Absorbance Values of sera … Pre” value ([2]; 5 μg per injection) was 0.126. The “Average Absorbance Values of sera … Day 14” value ([2]; 20 μg per injection) was 0.174, the “Average Absorbance Values of sera … Day 29” value ([2]; 20 μg per injection) was 0.171 and the “Average Absorbance Values of sera … Day 42” value ([2]; 20 μg per injection) was 0.411. The “Average Absorbance Values of sera … Pre” value ([2]; 20 μg per injection) was 0.146, the “Individual absorbancy values of sera … Pre” value ([2]; 5 μg per injection) was 0.110 and 0.133 and 0.136 and 0.126 and the “Individual absorbancy values of sera … Pre” value ([2]; 20 μg per injection) was 0.165 (2×) and 0.133 and 0.123. The “Individual absorbancy values … Day 14” value ([2]; 5 μg per injection) was 0.117 and 0.123 and 0.156 and 0.118, the “Individual absorbancy values … Day 29” value ([2]; 5 μg per injection) was 0.248 and 0.136 and 0.219 and 0.121 and the “Individual absorbancy values … Day 42” value ([2]; 5 μg per injection) was 0.388 and 0.264 and 0.357 and 0.127. The “Individual absorbancy values … Day 14” value ([2]; 20 μg per injection) was 0.213 and 0.150 and 0.153 and 0.180, the “Individual absorbancy values … Day 29” value ([2]; 20 μg per injection) was 0.175 and 0.214 and 0.141 and 0.156 and the “Individual absorbancy values … Day 42” value ([2]; 20 μg per injection) was 0.284 and 0.480 and 0.646 and 0.234.

In the case of “MSLLTEVETPIRNEWGCRCNDSSD [Peptide M2e, reference compound]”, the “IgG titers to live H3N2 virus (ELISA)” value (live H3N2 virus) is reported as “no particular advantage over small epitopic peptide fragments”.

B1: GNLFIAPGNLFIAPHYEECSCYHYEECSCYQYIKANSKFIGITEHYEECSCYTPIRNETPIRNE (peptide)
chain: GNLFIAPGNLFIAPHYEECSCYHYEECSCYQYIKANSKFIGITEHYEECSCYTPIRNETPIRNE
B1 was tested, and the “immune response against Influenza H1N1, H3N2, and H5N1” value [4] was “raised an immune response”.

Reference: patent US9777045B2, “Immunogenic compositions and methods” (Longhorn Vaccines and Diagnostics, LLC, priority 2007, dated 2017)
